In the test the test system is Phosphorylated Ribosomal Protein S6 (RPS6) in THP-1 cells. The test can be described thus: THP-1 RPS6 ELISA Assay. The conditions noted are these: Homo sapiens, THP-1 cells, 10 nM MCP-1, read-out: PI3Kγ_THP1_RPS6_ELISA IC50. The test is classed as cell-based, Human. Here is the method: To measure the Phosphorylated Ribosomal Protein S6 (RPS6) in cell lysates, THP-1 cells (Human Acute Monocytic Leukemia) are purchased from ATCC (Manassas, Va.) and maintained in RPMI with 10% FBS (Gibco/Life Technologies, Carlsbad, Calif.). For the assay, THP-1 cells are serum starved overnight in RPMI, then plated in RPMI (2×10^5 cells/well in 90 μL) into 96-well flat-bottom tissue culture treated plates (Corning, Corning, N.Y.), in the presence or absence of a concentration range of test compounds. Covered plates are incubated for 2 hours at 37° C., 5% CO2 then treated with or without 10 nM MCP-1(MYBioSource, San Diego, Calif.) for 15 minutes at 37° C., 5% CO2. Plates are centrifuged at 1600 RPM and supernatants are removed. Cells are lysed in Lysis Buffer (Cell Signaling, Danvers, Mass.) with Protease Inhibitor (Calbiochem/EMD, Germany), PMSF (Sigma, St Louis Mo.), HALTS (Thermo Fisher, Rockford, Ill.) for 30 min on wet ice. Cell lysates are frozen at −80 OC before testing. The lysates are tested in the Human/Mouse/Rat Phospho-RPS6 ELISA (R&D Systems, Inc. Minn, Minn.). The plate is measured using a microplate reader (SpectraMax M5—Molecular Devices, LLC Sunnyvale, Calif.) set to 450 nm with a wavelength correction of 540. IC50 determination is performed by fitting the curve of inhibitor percent inhibition versus the log of the inhibitor concentration using the GraphPad Prism 5.0 software.

The text below walks through data of patent US11046658B2, “Aminopyrazine derivatives as PI3K-γ inhibitors” (Incyte Corporation, priority 2018, dated 2021).

Structures are written as SMILES. pIC50: −log10 of the molar value. Structures can show the parent of a compound that is named as a salt. Where two headings read alike, the source gives them in different places.

As usually defined, the pIC50 is the IC50 on a negative log10 scale, so that one unit is a factor of ten. In the case of `CC[C@@H](CC#N)NC(=O)c1nc(-c2cc(C(O)(C(N)=O)C(F)(F)F)ccc2C)cnc1N` (stereo partly drawn) [Example 20, 3-amino-6-(5-(3-amino-1,1,1-trifluoro-2-hydroxy-3-oxopropan-2-yl)-2-methylphenyl)-N-((S)-1-cyanobutan-2-yl)pyrazine-2-carboxamide trifluoroacetate], the pIC50 (Table A1) was greater than 7.00. As for `COC(C)(C)CNC(=O)c1nc(-c2cc(C(O)(C(N)=O)C(F)(F)F)ccc2C)cnc1N` (centres unmarked) [Example 21, 3-amino-6-(5-(3-amino-1,1,1-trifluoro-2-hydroxy-3-oxopropan-2-yl)-2-methylphenyl)-N-(2-methoxy-2-methylpropyl)pyrazine-2-carboxamide trifluoroacetate], the negative logarithm of the IC50 (pIC50) (Table A1) was greater than 7.00. Regarding `Cc1ccc(C(O)(C(N)=O)C(F)(F)F)cc1-c1cnc(N)c(C(=O)NC23CC(C#N)(C2)C3)n1` (centres unmarked) [Example 23, 3-amino-6-(5-(3-amino-1,1,1-trifluoro-2-hydroxy-3-oxopropan-2-yl)-2-methylphenyl)-N-(3-cyanobicyclo[1.1.1]pentan-1-yl)pyrazine-2-carboxamide trifluoroacetate], the negative logarithm of the IC50 (pIC50) (Table A1) is greater than 7.00. On the same count and under the same terms, to `Cc1ccc(C(O)(C(N)=O)C(F)(F)F)cc1-c1cnc(N)c(C(=O)NC23CCC(C#N)(C2)C3)n1` (centres unmarked) [Example 24, 3-amino-6-(5-(3-amino-1,1,1-trifluoro-2-hydroxy-3-oxopropan-2-yl)-2-methylphenyl)-N-(4-cyanobicyclo[2.1.1]hexan-1-yl)pyrazine-2-carboxamide trifluoroacetate] belongs greater than 7.00; to `Cc1ccc(C(O)(C(N)=O)C(F)(F)F)cc1-c1cnc(N)c(C(=O)NC23CCC(C#N)(CC2)CC3)n1` (centres unmarked) [Example 25, 3-amino-6-(5-(3-amino-1,1,1-trifluoro-2-hydroxy-3-oxopropan-2-yl)-2-methylphenyl)-N-(4-cyanobicyclo[2.2.2]octan-1-yl)pyrazine-2-carboxamide trifluoroacetate], greater than 7.00; to `COC[C@H]1CCN1C(=O)c1nc(-c2cc(C(O)(C(N)=O)C(F)(F)F)ccc2C)cnc1N` (stereo partly drawn) [Example 26, 2-(3-(5-amino-6-((R)-2-(methoxymethyl)azetidine-1-carbonyl)pyrazin-2-yl)-4-methylphenyl)-3,3,3-trifluoro-2-hydroxypropanamide], greater than 6.30. For the compound `Cc1ccc(C(O)(C(N)=O)C(F)(F)F)cc1-c1cnc(N)c(C(=O)N2CCC2(C)C)n1` (centres unmarked) [Example 27, 2-(3-(5-amino-6-(2,2-dimethylazetidine-1-carbonyl)pyrazin-2-yl)-4-methylphenyl)-3,3,3-trifluoro-2-hydroxypropanamide], the negative logarithm of the IC50 (pIC50) (Table A1) was greater than 7.00. Same read-out and setting: under `CCNC(=O)c1nc(-c2cc(C(O)(C(N)=O)C(F)F)ccc2C)cnc1N` (centres unmarked) [Example 32, 3-amino-6-(5-(1-amino-3,3-difluoro-2-hydroxy-1-oxopropan-2-yl)-2-methylphenyl)-N-ethylpyrazine-2-carboxamide] stands greater than 7.00; under `Cc1ccc(C(O)(C(N)=O)C(F)F)cc1-c1cnc(N)c(C(=O)NCC2(C#N)CC2)n1` (centres unmarked) [Example 33, 3-amino-6-(5-(1-amino-3,3-difluoro-2-hydroxy-1-oxopropan-2-yl)-2-methylphenyl)-N-((1-cyanocyclopropyl)methyl)pyrazine-2-carboxamide], greater than 7.00; under `Cc1ccc(C(O)(C(N)=O)C(F)F)cc1-c1cnc(N)c(C(=O)NC2CCC(F)(F)CC2)n1` (centres unmarked) [Example 34, 3-amino-6-(5-(1-amino-3,3-difluoro-2-hydroxy-1-oxopropan-2-yl)-2-methylphenyl)-N-(4,4-difluorocyclohexyl)pyrazine-2-carboxamide], greater than 7.00. Regarding `Cc1ccc(C(O)(C(N)=O)C(F)F)cc1-c1cnc(N)c(C(=O)NC(C)(C)CO)n1` (centres unmarked) [Example 35, 3-amino-6-(5-(1-amino-3,3-difluoro-2-hydroxy-1-oxopropan-2-yl)-2-methylphenyl)-N-(1-hydroxy-2-methylpropan-2-yl)pyrazine-2-carboxamide], the pIC50 (Table A1) was greater than 7.00. As for `Cc1ccc(C(O)(C(N)=O)C(F)F)cc1-c1cnc(N)c(C(=O)NC2CCOCC2)n1` (centres unmarked) [Example 36, 3-amino-6-(5-(1-amino-3,3-difluoro-2-hydroxy-1-oxopropan-2-yl)-2-methylphenyl)-N-(tetrahydro-2H-pyran-4-yl)pyrazine-2-carboxamide], the pIC50 (Table A1) was greater than 7.00. For `Cc1ccc(C(O)(C(N)=O)C(F)F)cc1-c1cnc(N)c(C(=O)NCCC2CCOC2)n1` (centres unmarked) [Example 37, 3-amino-6-(5-(1-amino-3,3-difluoro-2-hydroxy-1-oxopropan-2-yl)-2-methylphenyl)-N-(2-(tetrahydrofuran-3-yl)ethyl)pyrazine-2-carboxamide], the pIC50 (Table A1) was greater than 7.00. On the same count and under the same terms, under `Cc1ccc(C(O)(C(N)=O)C(F)(F)F)cc1-c1cnc(N)c(C(=O)NCC(F)(F)F)n1` (centres unmarked) [Example 38, 3-Amino-6-(5-(3-amino-1,1,1-trifluoro-2-hydroxy-3-oxopropan-2-yl)-2-methylphenyl)-N-(2,2,2-trifluoroethyl)pyrazine-2-carboxamide trifluoroacetate] stands greater than 7.00; under `CC(=O)NCC(O)(c1ccc(C)c(-c2cnc(N)c(C(=O)NC(C)C)n2)c1)C(F)(F)F` (centres unmarked) [Example 39, 6-(5-(3-Acetamido-1,1,1-trifluoro-2-hydroxypropan-2-yl)-2-methylphenyl)-3-amino-N-isopropylpyrazine-2-carboxamide trifluoroacetate], greater than 6.30; under `Cc1ccc(C(O)(CNC(=O)CF)C(F)(F)F)cc1-c1cnc(N)c(C(=O)NC(C)C)n1` (centres unmarked) [Example 40, 3-Amino-N-isopropyl-6-(2-methyl-5-(1,1,1,-trifluoro-3-(2-fluoroacetamido)-2-hydroxypropan-2-yl)phenyl)pyrazine-2-carboxamide trifluoroacetate], greater than 6.30. Still for that read-out and setting: under `Cc1ccc(C(O)(CNC(=O)CC#N)C(F)(F)F)cc1-c1cnc(N)c(C(=O)NC(C)C)n1` (centres unmarked) [Example 42, 3-Amino-6-(5-(3-(2-cyanoacetamido)-1,1,1-trifluoro-2-hydroxypropan-2-yl)-2-methylphenyl)-N-isopropylpyrazine-2-carboxamide trifluoroacetate] stands greater than 6.30. For `COCC#Cc1nc(-c2cc(C(O)(C(N)=O)C(F)(F)F)ccc2C)cnc1N` (centres unmarked) [Example 47, 2-(3-(5-amino-6-(3-methoxyprop-1-ynyl)pyrazin-2-yl)-4-methylphenyl)-3,3,3-trifluoro-2-hydroxypropanamide trifluoroacetate], under “Table A2”, the pIC50 is greater than 7.00.

Turning to `Cc1ccc(C(O)(C(N)=O)C(F)(F)F)cc1-c1cnc(N)c(C#CC2CC2)n1` (centres unmarked) [Example 48, 2-(3-(5-amino-6-(cyclopropylethynyl)pyrazin-2-yl)-4-methylphenyl)-3,3,3-trifluoro-2-hydroxypropanamide], the pIC50 (Table A2) was less than 6.00. On the same count and under the same terms, to `Cc1ccc(C(O)(C(N)=O)C(F)(F)F)cc1-c1cnc(N)c(C#CC(C)C)n1` (centres unmarked) [Example 49, 2-(3-(5-amino-6-(3-methylbut-1-ynyl)pyrazin-2-yl)-4-methylphenyl)-3,3,3-trifluoro-2-hydroxypropanamide] belongs greater than 6.30; to `Cc1ccc(C(O)(C(N)=O)C(F)(F)F)cc1-c1cnc(N)c(C#CC(C)(C)O)n1` (centres unmarked) [Example 50, 2-(3-(5-amino-6-(3-hydroxy-3-methylbut-1-ynyl)pyrazin-2-yl)-4-methylphenyl)-3,3,3-trifluoro-2-hydroxypropanamide], greater than 7.00.

Turning to `Cc1ccc(C(O)(C(N)=O)C(F)(F)F)cc1-c1cnc(N)c(C#CCC(C)O)n1` (centres unmarked) [Example 51, 2-(3-(5-amino-6-(4-hydroxypent-1-ynyl)pyrazin-2-yl)-4-methylphenyl)-3,3,3-trifluoro-2-hydroxypropanamide], for the setting “Table A2”, the pIC50 was greater than 7.00.

Consider `Cc1ccc(C(O)(C(N)=O)C(F)(F)F)cc1-c1cnc(N)c(C#Cc2ccn[nH]2)n1` (centres unmarked) [Example 52, 2-(3-(6-((1H-pyrazol-5-yl)ethynyl)-5-aminopyrazin-2-yl)-4-methylphenyl)-3,3,3-trifluoro-2-hydroxypropanamide], for which the pIC50 (Table A2) was greater than 6.30. Take `Cc1ccc(C(O)(C(N)=O)C(F)(F)F)cc1-c1cnc(N)c(C#Cc2cncn2C)n1` (centres unmarked) [Example 53, 2-(3-(5-amino-6-((1-methyl-1H-imidazol-5-yl)ethynyl)pyrazin-2-yl)-4-methylphenyl)-3,3,3-trifluoro-2-hydroxypropanamide]: the pIC50 (Table A2) was greater than 6.30.

`Cc1ccc(C(O)(C(N)=O)C(F)(F)F)cc1-c1cnc(N)c(C#Cc2cnn(C)c2)n1` (centres unmarked) [Example 54, 2-(3-(5-amino-6-((1-methyl-1H-pyrazol-4-yl)ethynyl)pyrazin-2-yl)-4-methylphenyl)-3,3,3-trifluoro-2-hydroxypropanamide]: where the note is “Table A2”, the pIC50 was greater than 7.00. As for `Cc1ccc(C(O)(C(N)=O)C(F)(F)F)cc1-c1cnc(N)c(C#Cc2ccccn2)n1` (centres unmarked) [Example 55, 2-(3-(5-amino-6-(pyridin-2-ylethynyl)pyrazin-2-yl)-4-methylphenyl)-3,3,3-trifluoro-2-hydroxypropanamide], where the note is “Table A2”, the pIC50 was greater than 7.00.
